Source: patent publication US20200030355A1, “COMBINATION THERAPY FOR TREATING CANCER” (Epizyme, Inc., priority 2014, published 2020)

How the values were obtained:
[1] = tested on: MOLM-13 (MLL-AF9); assay: Compound A2 7-day pre-treatment, then Compound A2 and Compound 1 for 3 days, CellTiter-Glo (Example 9); type: cell-based, human; conditions: Compound A2 7 days, then both for 3 days, n=2
Procedure: (§1) At the endpoint, cell viability was measured via ATP content using CellTiter-Glo®.

[2] = tested on: SKM-1 (non-MLL-r); assay: as above; type: cell-based, human; conditions: Compound A2 7 days, then both for 3 days, n=2
Procedure: as §1

[3] = target: ERK1 (Homo sapiens, UniProt P27361); assay: ERK kinase activity inhibition; type: biochemical
Procedure: (§2) Compound 1 is a potent inhibitor of the kinase activities of ERK1 and ERK2. In some embodiments, Compound 1 inhibits one or both of ERK1 and ERK2 with an IC50 of about 10 to about 20 nM.
(§3) The activity of Compound 1, and pharmaceutically acceptable salts thereof, as an inhibitor of one or both of an ERK1 and ERK2 kinase, or a mutant thereof, may be assayed in vitro, in vivo or in a cell line. In vitro assays include assays that determine inhibition of downstream phosphorylation, changes in gene expression, subsequent functional markers and consequences, and/or kinase activity of one or both of activated ERK1 and ERK2 kinase, or a mutant thereof. Alternate in vitro assays quantitate the ability of the test compound to bind to one or both of ERK1 and ERK2. Test compound binding may be measured by radiolabeling the test compound prior to binding, isolating one or both of the compound/ERK1 complex and the compound/ERK2 complex, and determining the amount of radiolabel bound. Alternatively, test compound binding may be determined by running a competition experiment where test compounds are incubated with one or both of ERK1 and ERK2 kinase bound to known radioligands. […]

[4] = target: ERK2 (Homo sapiens, UniProt P28482); assay: ERK kinase activity inhibition; type: biochemical
Procedure: as §2, §3

[5] = tested on: 258 kinases; assay: Kinase selectivity analysis; type: biochemical; conditions: analysis of 258 kinases
Procedure: as §2

[6] = tested on: BRAF-mutant cancer cell lines; assay: Cancer cell panel screening, anti-proliferative activity; type: cell-based; conditions: 25 of 27 BRAF-mutant cancer cell lines tested
From the text: (§4) Bioinformatic analyses indicate that tumors with activating mutations of BRAF are particularly sensitive to Compound 1. […] In the same cancer cell panel screening, 28 of 37 (76%) KRAS-mutant cancer cell lines were sensitive to Compound 1. […] This is of particular importance as resistance to BRAF inhibition has been commonly observed in human patients. […] Without wishing to being bound by any particular theory, it is believed that inhibitors of one or both of ERK1 and ERK2, or a mutant thereof, such as Compound 1, or pharmaceutically acceptable salts thereof, provide effective salvage therapy.

[7] = tested on: KRAS-mutant cancer cell lines; assay: as above; type: cell-based; conditions: 28 of 37 KRAS-mutant cancer cell lines
From the text: as §4

[8] = tested on: A375 melanoma cells that have acquired in vitro resistance to BRAF and MEK inhibition; assay: Inhibitory activity against resistant melanoma cells; type: cell-based
From the text: as §4

[9] = tested on: MOLM-13 (MLL-AF9); assay: Combination proliferation study with Compound A2 (ATP/CellTiter-Glo, Chou-Talalay combination index); type: cell-based, human; conditions: 7 Day Cotreatment Model, Table 4
Outline: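 Viability by CellTiter-Glo ATP luminescence; Fa relative to DMSO controls. Combination index by Chou-Talalay (CI<1 synergy, =1 additive, >1 antagonism).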

[10] = tested on: MOLM-13 (MLL-AF9); assay: EPZ-5676 7-day pre-treatment, then second compound 72 hours, growth inhibition GI100 shift; primary screen and retest (Example 7); type: cell-based, human
Procedure: (§5) Cells were then equilibrated in incubators for 24 hours before treatment with a second compound. Treated assay plates were incubated with a second compound for 72 hours. After this time, plates were developed for endpoint analysis using ATPLite to measure ATP content, which is used as an indicator of cell viability.
(§6) Cells were then treated with a second compound for 72 hours. After this time, plates were developed for endpoint analysis using Cell Titer Glo to measure ATP content, which is used as an indicator of cell viability.
(§7) “N/D” means the GI100 of the second compound could not be determined for both conditions and “-” means not tested.
(§8) Growth Inhibition (GI) as a measure of cell viability: The cell viability of vehicle was measured at the time of dosing the second agent (T0) and after seventy-two hours (T72). […] A GI 200% represents complete death of all cells in the culture well. Compounds reaching an activity plateau of GI 200% are considered cytotoxic. GI is calculated by applying the following test and equation: […]
(§9) where T is the signal measure for a test article, V is the vehicle-treated control measure, and V0 is the vehicle control measure at time zero.

[11] = tested on: SKM-1 (non-MLLr); assay: as above; type: cell-based, human; conditions: 300 nM EPZ-5676 7-day pre-treatment
Procedure: as §5, §6, §7, §8, §9

[12] = tested on: OCI-AML-4 (MLL-ENL); assay: as above; type: cell-based
Procedure: as §5, §6, §7, §8, §9

[13] = tested on: ML-2 (MLL-AF6); assay: EPZ-5676 7-day pre-treatment, then second compound 72 hours, growth inhibition GI100 shift (Example 7); type: cell-based
Procedure: as §5, §6, §7, §8, §9

[14] = 300 nM EPZ-5676 7-day pre-treatment, second compound 72 hours, ATPLite

Chain of ERK1 (P27361 whole entry): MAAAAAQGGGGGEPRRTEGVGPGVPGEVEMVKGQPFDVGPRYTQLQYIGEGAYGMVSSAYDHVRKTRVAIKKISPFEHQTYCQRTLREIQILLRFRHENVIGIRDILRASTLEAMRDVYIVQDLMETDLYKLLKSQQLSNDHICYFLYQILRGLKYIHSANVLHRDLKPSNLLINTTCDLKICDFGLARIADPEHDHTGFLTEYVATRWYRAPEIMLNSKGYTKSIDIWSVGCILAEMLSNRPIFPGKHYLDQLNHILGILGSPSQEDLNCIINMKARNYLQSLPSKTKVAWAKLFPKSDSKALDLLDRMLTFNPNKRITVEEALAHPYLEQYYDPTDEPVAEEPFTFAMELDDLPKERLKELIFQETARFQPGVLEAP
Chain of ERK2 (P28482 whole entry): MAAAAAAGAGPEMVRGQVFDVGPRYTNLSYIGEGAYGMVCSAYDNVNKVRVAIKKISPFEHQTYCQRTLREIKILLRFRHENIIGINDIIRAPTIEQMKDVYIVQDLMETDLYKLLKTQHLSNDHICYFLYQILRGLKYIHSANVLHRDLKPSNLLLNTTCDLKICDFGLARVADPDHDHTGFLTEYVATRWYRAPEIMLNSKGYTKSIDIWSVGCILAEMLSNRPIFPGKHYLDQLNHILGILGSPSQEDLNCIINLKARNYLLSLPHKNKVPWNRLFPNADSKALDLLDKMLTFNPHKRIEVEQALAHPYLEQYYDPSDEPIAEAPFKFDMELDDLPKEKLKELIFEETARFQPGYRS

IC50 [3] [nM] | IC50 [4] [nM] | Kinase selectivity profile [5] | Cell lines sensitive to Compound 1 inhibition (GI50 <1 μM) [6] [%] | Structure (SMILES) | Combination (Compound A2 and Compound 1) [1] | Combination (Compound A2 and Compound 1) [2] | Cell lines sensitive to Compound 1 [7] [%] | Activity against resistant A375 melanoma cells [8] | Combination with Compound A2, MOLM-13 (MLL-AF9) [9] | GI100 [10] | Combination with EPZ-5676, MOLM-13 (MLL-AF9) Retest ([10]; 150 nM EPZ-5676 7-day pre-treatment, second compound 72 hours, Cell Titer Glo) | Combination with EPZ-5676, MOLM-13 (MLL-AF9) Primary screen [10, 14] | Combination with EPZ-5676, SKM-1 (non-MLLr) Primary screen ([11]; ATPLite) | Combination with EPZ-5676, SKM-1 (non-MLLr) Retest ([11]; Cell Titer Glo) | GI100 [12] | Combination with EPZ-5676, OCI-AML-4 (MLL-ENL) Primary screen [12, 14] | Combination with EPZ-5676, OCI-AML-4 (MLL-ENL) Retest ([12]; 300 nM EPZ-5676 7-day pre-treatment, second compound 72 hours, Cell Titer Glo) | GI100 [13]
10 to 20 | 10 to 20 | good overall kinase selectivity profile | 93 | C=CC(=O)Nc1cc(C)ccc1Nc1nc(Nc2cc(OC)ncc2C)ncc1C(F)(F)F [Compound 1, N-(2-((2-((2-methoxy-5-methylpyridin-4-yl)amino)-5-(trifluoromethyl)pyrimidin-4-yl)amino)-5-methylphenyl)acrylamide] | Synergy | No benefit | 76 | inhibitory activity |  |  |  |  |  |  |  |  |  | 
 |  |  |  | CC(=O)Nc1cccc(-n2c(=O)n(C3CC3)c(=O)c3c(Nc4ccc(I)cc4F)n(C)c(=O)c(C)c32)c1 [Trametinib] |  |  |  |  | Synergy (Drug synergy was statistically defined by CI values less than 1) | 0.03 | Synergy (considered synergistic if the GI100 (Growth inhibition 100) value of the second compound decreased by 2-fold or more when EPZ-5676 was added as compared to the DMSO control) | Synergy (considered synergistic if the GI100 (Growth inhibition 100) value of the second compound decreased by 2-fold or more when EPZ-5676 was added as compared to the DMSO control) | Synergy (considered synergistic if the GI100 (Growth inhibition 100) value of the second compound decreased by 2-fold or more when EPZ-5676 was added as compared to the DMSO control) | Synergy (considered synergistic if the GI100 (Growth inhibition 100) value of the second compound decreased by 2-fold or more when EPZ-5676 was added as compared to the DMSO control) | 0.009 | Synergy (considered synergistic if the GI100 (Growth inhibition 100) value of the second compound decreased by 2-fold or more when EPZ-5676 was added as compared to the DMSO control) | Synergy (considered synergistic if the GI100 (Growth inhibition 100) value of the second compound decreased by 2-fold or more when EPZ-5676 was added as compared to the DMSO control) | 0.001
